# Data from PubChem BioAssay (NCI).
#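 Following 48 hours of exposure in 96-well plates, responses at five concentrations were used to interpolate endpoints linearly. At the GI50, growth is halved. The concentration for full growth arrest is given as TGI.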
# How the values were obtained:
# Assay in all cases: NCI-60 cell line screen, 48 h
# [1] = system: NCI-H460 lung
# [2] = system: NCI-H522 lung
# [3] = system: NCI/ADR-RES ovarian
# [4] = system: OVCAR-3 ovarian
# [5] = system: OVCAR-4 ovarian
# [6] = system: OVCAR-5 ovarian
# [7] = system: OVCAR-8 ovarian
# [8] = system: PC-3 prostate
# [9] = system: RPMI-8226 leukemia
# [10] = system: RXF 393 renal
# [11] = system: SF-268 CNS
# [12] = system: SF-295 CNS
# [13] = system: SF-539 CNS
# [14] = system: SK-MEL-2 melanoma
# [15] = system: SK-MEL-28 melanoma
# [16] = system: SK-MEL-5 melanoma
# [17] = system: SK-OV-3 ovarian
# [18] = system: SN12C renal
# [19] = system: SNB-19 CNS
# [20] = system: SNB-75 CNS
# [21] = system: SR leukemia
# [22] = system: SW-620 colon
# [23] = system: T-47D breast
# [24] = system: TK-10 renal
# [25] = system: U251 CNS
# [26] = system: UACC-257 melanoma
# [27] = system: UACC-62 melanoma
# [28] = system: UO-31 renal
smiles,measurement,setting,value
CCCCCCNC(=O)Oc1ccc(/C(=C(/C)c2ccccc2)c2ccc(OCCN3CCCCCC3)cc2)cc1,GI50,[1],4.27 µM
same,TGI,[1],16.1 µM
same,GI50,[2],12.6 µM
same,TGI,[2],26 µM
same,GI50,[3],12.3 µM
same,TGI,[3],28.8 µM
same,GI50,[4],12 µM
same,TGI,[4],28.8 µM
same,GI50,[5],10 µM
same,TGI,[5],23.4 µM
same,GI50,[6],12.4 µM
same,TGI,[6],27 µM
same,GI50,[7],13.1 µM
same,TGI,[7],26.6 µM
same,GI50,[8],6.2 µM
same,TGI,[8],20.4 µM
same,GI50,[9],3.99 µM
same,TGI,[9],23 µM
same,GI50,[10],2.63 µM
same,TGI,[10],9.11 µM
same,GI50,[11],12.7 µM
same,TGI,[11],29.4 µM
same,GI50,[12],5.74 µM
same,TGI,[12],18.6 µM
same,GI50,[13],7.23 µM
same,TGI,[13],21 µM
same,GI50,[14],14.1 µM
same,TGI,[14],27.6 µM
same,GI50,[15],5.98 µM
same,TGI,[15],19.8 µM
same,GI50,[16],14.2 µM
same,TGI,[16],27.6 µM
same,GI50,[17],13 µM
same,TGI,[17],26.4 µM
same,GI50,[18],10.4 µM
same,TGI,[18],23.7 µM
same,GI50,[19],16.6 µM
same,TGI,[19],69.8 µM
same,GI50,[20],9.25 µM
same,TGI,[20],21.7 µM
same,GI50,[21],2.58 µM
same,TGI,[21],12 µM
same,GI50,[22],3.18 µM
same,TGI,[22],12.5 µM
same,GI50,[23],3.07 µM
same,TGI,[23],21 µM
same,GI50,[24],16.3 µM
same,TGI,[24],30.5 µM
same,GI50,[25],7.25 µM
same,TGI,[25],20.7 µM
same,GI50,[26],3.75 µM
same,TGI,[26],14.5 µM
same,GI50,[27],9.09 µM
same,TGI,[27],22 µM
same,GI50,[28],4.02 µM
same,TGI,[28],17 µM
